Laboratory results as given in US20210346357A1 (priority 2020, published 2021).

Key:
Abl1 = Abl1 (Homo sapiens, UniProt P00519); test: Biochemical ABL1 kinase assay (33P-ATP); settings: read-out: inhibition in the Abl1 assay
Abl2 = Abl2 (Homo sapiens, UniProt P42684); test: biochemical; settings: read-out: inhibition in the Abl2 assay
Chain of Abl2 (P42684 whole entry): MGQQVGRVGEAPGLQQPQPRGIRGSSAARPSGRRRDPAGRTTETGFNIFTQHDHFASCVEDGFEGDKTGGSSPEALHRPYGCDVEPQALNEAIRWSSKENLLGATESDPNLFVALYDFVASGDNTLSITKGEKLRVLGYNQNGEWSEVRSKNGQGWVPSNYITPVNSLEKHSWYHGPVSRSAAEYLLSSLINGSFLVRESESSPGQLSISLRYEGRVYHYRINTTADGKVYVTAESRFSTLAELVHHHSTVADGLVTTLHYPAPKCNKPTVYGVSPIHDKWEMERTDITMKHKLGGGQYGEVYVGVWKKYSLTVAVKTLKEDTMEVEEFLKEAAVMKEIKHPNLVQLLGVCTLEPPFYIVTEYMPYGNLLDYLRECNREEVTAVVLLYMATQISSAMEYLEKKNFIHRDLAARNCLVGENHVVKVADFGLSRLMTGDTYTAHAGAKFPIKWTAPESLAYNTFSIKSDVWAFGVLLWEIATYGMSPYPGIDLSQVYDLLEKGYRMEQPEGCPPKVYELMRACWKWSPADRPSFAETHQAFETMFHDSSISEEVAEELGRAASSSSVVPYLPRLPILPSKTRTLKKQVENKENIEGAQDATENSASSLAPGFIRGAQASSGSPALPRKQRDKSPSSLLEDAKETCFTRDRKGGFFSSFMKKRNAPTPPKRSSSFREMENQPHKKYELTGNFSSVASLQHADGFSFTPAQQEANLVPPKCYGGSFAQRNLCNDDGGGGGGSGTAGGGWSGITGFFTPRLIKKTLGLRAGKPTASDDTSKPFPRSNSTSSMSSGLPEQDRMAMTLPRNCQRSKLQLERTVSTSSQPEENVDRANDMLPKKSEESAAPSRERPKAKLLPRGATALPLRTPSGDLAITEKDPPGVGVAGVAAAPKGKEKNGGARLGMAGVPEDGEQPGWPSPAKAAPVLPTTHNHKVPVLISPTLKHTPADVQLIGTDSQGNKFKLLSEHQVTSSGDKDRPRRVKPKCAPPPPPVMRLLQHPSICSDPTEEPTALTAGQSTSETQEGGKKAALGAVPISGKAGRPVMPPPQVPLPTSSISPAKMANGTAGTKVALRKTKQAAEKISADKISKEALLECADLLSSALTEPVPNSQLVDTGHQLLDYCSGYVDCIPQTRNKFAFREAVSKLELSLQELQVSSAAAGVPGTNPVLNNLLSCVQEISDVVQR

Chain of Abl1 (P00519 whole entry): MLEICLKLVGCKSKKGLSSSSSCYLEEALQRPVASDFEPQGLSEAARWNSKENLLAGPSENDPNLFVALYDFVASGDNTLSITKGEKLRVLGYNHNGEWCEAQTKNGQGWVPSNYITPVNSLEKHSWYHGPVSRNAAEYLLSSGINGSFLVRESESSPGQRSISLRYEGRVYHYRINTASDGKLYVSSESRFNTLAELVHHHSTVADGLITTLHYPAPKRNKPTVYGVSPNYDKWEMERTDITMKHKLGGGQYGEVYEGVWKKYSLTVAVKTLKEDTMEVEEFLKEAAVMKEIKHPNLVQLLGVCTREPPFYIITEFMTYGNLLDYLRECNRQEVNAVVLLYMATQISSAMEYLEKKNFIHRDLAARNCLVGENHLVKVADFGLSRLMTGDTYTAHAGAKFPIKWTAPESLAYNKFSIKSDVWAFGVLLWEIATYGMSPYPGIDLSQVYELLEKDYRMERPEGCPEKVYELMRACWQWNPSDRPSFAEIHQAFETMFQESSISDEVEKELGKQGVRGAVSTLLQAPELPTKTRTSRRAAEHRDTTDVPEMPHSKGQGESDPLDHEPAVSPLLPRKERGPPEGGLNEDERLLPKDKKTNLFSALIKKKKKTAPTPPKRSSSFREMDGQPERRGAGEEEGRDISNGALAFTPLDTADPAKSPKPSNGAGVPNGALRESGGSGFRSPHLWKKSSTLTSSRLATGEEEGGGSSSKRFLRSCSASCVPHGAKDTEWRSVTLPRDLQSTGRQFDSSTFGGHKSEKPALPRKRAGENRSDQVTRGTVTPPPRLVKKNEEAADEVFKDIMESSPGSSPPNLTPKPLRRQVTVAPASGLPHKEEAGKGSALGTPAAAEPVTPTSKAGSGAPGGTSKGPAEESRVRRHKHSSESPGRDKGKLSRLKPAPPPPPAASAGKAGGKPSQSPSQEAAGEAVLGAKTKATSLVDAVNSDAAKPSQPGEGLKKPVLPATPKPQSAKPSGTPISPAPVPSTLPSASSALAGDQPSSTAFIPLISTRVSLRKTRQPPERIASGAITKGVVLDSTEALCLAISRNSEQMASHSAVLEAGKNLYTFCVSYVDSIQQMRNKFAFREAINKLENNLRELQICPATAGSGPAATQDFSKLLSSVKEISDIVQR

In the case of `CCS(=O)(=O)N1CC(CC#N)(n2cc(-c3ncnc4[nH]ccc34)cn2)C1` [baricitinib, reference compound], the inhibition at 10 µM (Abl1) is reported as 80% and the inhibition at 10 µM (Abl2) is reported as 35%.
